# From ChEMBL document CHEMBL5360573, “Discovery of novel tryptamine derivatives as GluN2B subunit-containing NMDA receptor antagonists via pharmacophore-merging strategy with orally available therapeutic effect of cerebral ischemia” (Eur J Med Chem, 2023)
# What was measured:
# Type in all cases: functional
# Details in all cases: time 6.5 hrs, read-out: Activity
# SH-SY5Y [1] = experiment: Neuroprotective activity against NMDA-induced cell injury in human SH-SY5Y cells assessed as cell viability at 0.05 uM incubated for 6 hrs followed by NMDA treatment for 0.5 hrs and subsequent replacement of fresh medium without compounds by MTT assay relative to control
# SH-SY5Y [2] = experiment: Neuroprotective activity against NMDA-induced cell injury in human SH-SY5Y cells assessed as cell viability at 0.5 uM incubated for 6 hrs followed by NMDA treatment for 0.5 hrs and subsequent replacement of fresh medium without compounds by MTT assay relative to control
# SH-SY5Y [3] = experiment: Neuroprotective activity against NMDA-induced cell injury in human SH-SY5Y cells assessed as cell viability at 5 uM incubated for 6 hrs followed by NMDA treatment for 0.5 hrs and subsequent replacement of fresh medium without compounds by MTT assay relative to control
structure (smiles),measurement,setting,value
O=C(/C=C/c1ccc(O)cc1)NCCc1cn(Cc2ccc(Cl)cc2)c2ccccc12,viability at 0.05 µM,SH-SY5Y [1],31.9%
same,viability at 0.5 µM,SH-SY5Y [2],22.5%
same,viability at 5 µM,SH-SY5Y [3],21.7%
O=C(/C=C/c1ccc(O)cc1)NCCc1cn(Cc2ccccc2F)c2ccccc12,viability at 0.05 µM,SH-SY5Y [1],32.4%
same,viability at 0.5 µM,SH-SY5Y [2],32.4%
same,viability at 5 µM,SH-SY5Y [3],24.7%
O=C(/C=C/c1ccc(O)cc1)NCCc1cn(Cc2cccc(Cl)c2)c2ccccc12,viability at 0.05 µM,SH-SY5Y [1],32.2%
same,viability at 0.5 µM,SH-SY5Y [2],38.8%
same,viability at 5 µM,SH-SY5Y [3],25.2%
O=C(CCc1ccc(O)cc1)NCCc1cn(Cc2ccccc2)c2ccccc12,viability at 0.05 µM,SH-SY5Y [1],45.3%
same,viability at 0.5 µM,SH-SY5Y [2],50.9%
same,viability at 5 µM,SH-SY5Y [3],52.1%
O=C(/C=C/c1ccc(O)cc1)NCCc1cn(Cc2ccc(Br)cc2)c2ccccc12,viability at 0.05 µM,SH-SY5Y [1],42.6%
same,viability at 0.5 µM,SH-SY5Y [2],36.1%
same,viability at 5 µM,SH-SY5Y [3],25.5%
CCn1cc(CCNC(=O)/C=C/c2ccc(O)cc2)c2ccccc21,viability at 0.05 µM,SH-SY5Y [1],19.9%
same,viability at 0.5 µM,SH-SY5Y [2],22.4%
same,viability at 5 µM,SH-SY5Y [3],19.9%
O=C(NCCc1cn(Cc2ccccc2)c2ccccc12)c1ccc(O)cc1,viability at 0.05 µM,SH-SY5Y [1],31.7%
same,viability at 0.5 µM,SH-SY5Y [2],54.3%
same,viability at 5 µM,SH-SY5Y [3],51.4%
CCCn1cc(CCNC(=O)/C=C/c2ccc(O)cc2)c2ccccc21,viability at 0.05 µM,SH-SY5Y [1],17.6%
same,viability at 0.5 µM,SH-SY5Y [2],13.5%
same,viability at 5 µM,SH-SY5Y [3],25.1%
O=C(/C=C/c1ccc(O)cc1)NCCc1cn(CCc2ccccc2)c2ccccc12,viability at 0.05 µM,SH-SY5Y [1],25.9%
same,viability at 0.5 µM,SH-SY5Y [2],10.1%
same,viability at 5 µM,SH-SY5Y [3],8%
O=C(/C=C/c1ccccc1)NCCc1cn(Cc2ccccc2)c2ccccc12,viability at 0.05 µM,SH-SY5Y [1],30.4%
same,viability at 0.5 µM,SH-SY5Y [2],8.4%
same,viability at 5 µM,SH-SY5Y [3],24.7%
O=C(/C=C/c1ccc(O)cc1)NCCc1cn(Cc2ccccc2Br)c2ccccc12,viability at 0.05 µM,SH-SY5Y [1],45.1%
same,viability at 0.5 µM,SH-SY5Y [2],32.3%
same,viability at 5 µM,SH-SY5Y [3],36.7%
O=C(/C=C/c1ccc(O)cc1)NCCc1cn(Cc2ccccc2Cl)c2ccccc12,viability at 0.05 µM,SH-SY5Y [1],13.6%
same,viability at 0.5 µM,SH-SY5Y [2],10.1%
same,viability at 5 µM,SH-SY5Y [3],5.9%
O=C(/C=C/c1ccc(O)cc1)NCCc1cn(CC2CC2)c2ccccc12,viability at 0.05 µM,SH-SY5Y [1],19.9%
same,viability at 0.5 µM,SH-SY5Y [2],18.6%
same,viability at 5 µM,SH-SY5Y [3],9.7%
